Structures can show the parent of a compound that is named as a salt.
SMILES	melting point
CCOC(=O)COc1ccc(C(=O)CN2Cc3cc(C(=N)NO)ccc3C2=O)cc1OCC(=O)OCC [Example 21, (2-Ethoxycarbonylmethoxy-4-{2-[5-(N-hydroxycarbamimidoyl)-1-oxo-1,3-dihydro-isoindol-2-yl]-acetyl}-phenoxy)-acetic acid ethyl ester]	163 to 164 °C
CCOC(=O)C(CCNC(=O)OCc1ccccc1)Oc1ccc(C(=O)CN2Cc3cc(C(=N)NO)ccc3C2=O)cc1 (centres unmarked) [Example 28, 4-Benzyloxycarbonylamino-2-(4-{2-[5-(N-hydroxycarbamimidoyl)-1-oxo-1,3-dihydro-isoindol-2-yl]-acetyl}-phenoxy)-butyric acid ethyl ester]	174 to 175 °C
CC(C)COC(=O)NC(=N)c1ccc2c(c1)CN(CC(=O)c1ccc(OCC(=O)OCc3ccccc3)cc1)C2=O (hydrate or solvate) [Example 19, (4-{2-[5-(Imino-isobutoxycarbonylamino-methyl)-1-oxo-1,3-dihydro-isoindol-2-yl]-acetyl}-phenoxy)-acetic acid benzyl ester]	162 to 163 °C
N=C(N)c1ccc2c(c1)CN(CC(=O)c1ccc(OCC(=O)OCc3ccccc3)cc1)C2=O (as salt: salt) (hydrate or solvate) [Example 16, (4-{2-[5-Carbamimidoyl-1-oxo-1,3-dihydro-isoindol-2-yl]-acetyl}-phenoxy)-acetic acid benzyl ester]	190 °C (dec.)
N=C(NO)c1ccc2c(c1)CN(CC(=O)c1ccc(OCC(=O)OCc3ccccc3)cc1O)C2=O [Example 43, (3-Hydroxy-4-{2-[5-(N-hydroxycarbamimidoyl)-1-oxo-1,3-dihydro-isoindol-2-yl]-acetyl}-phenoxy)-acetic acid benzyl ester]	183 to 184 °C
CCOC(=O)COc1ccc(C(=O)CN2Cc3cc(C(=N)NO)ccc3C2=O)cc1 (hydrate or solvate) [Example 4, (4-{2-[5-(N-Hydroxycarbamimidoyl)-1-oxo-1,3-dihydro-isoindol-2-yl]-acetyl}-phenoxy)-acetic acid ethyl ester]	175 to 178 °C
CCOC(=O)COc1ccc(C(=O)CN2Cc3cc(C(=N)NO)ccc3C2=O)cc1Cl [Example 32, (2-Chloro-4-{2-[5-(N-hydroxycarbamimidoyl)-1-oxo-1,3-dihydro-isoindol-2-yl]-acetyl}-phenoxy)-acetic acid ethyl ester]	201 to 202 °C
CC(C)COC(=O)COc1ccc(C(=O)CN2Cc3cc(C(=N)NS(C)(=O)=O)ccc3C2=O)cc1 [Example 14, (4-{2-[5-(Imino-methanesulfonylamino-methyl)-1-oxo-1,3-dihydro-isoindol-2-yl]-acetyl}-phenoxy)-acetic acid isobutyl ester]	177 to 178 °C
CCOC(=O)COc1ccc(C(=O)CN2Cc3cc(-c4noc(C)n4)ccc3C2=O)c(OC(C)=O)c1 [Example 80, (3-Acetoxy-4-{2-[5-(5-methyl-[1,2,4]oxadiazol-3-yl)-1-oxo-1,3-dihydro-isoindol-2-yl]acetyl}-phenoxy)-acetic acid ethyl ester]	162 to 164 °C
CCOC(=O)COc1ccc(C(=O)CN2Cc3cc(C(=N)NO)ccc3C2=O)cc1SCC (hydrate or solvate) [Example 34, (2-Ethylsulfanyl-4-{2-[5-(N-hydroxycarbamimidoyl)-1-oxo-1,3-dihydro-isoindol-2-yl]-acetyl}-phenoxy)-acetic acid ethyl ester]	190 to 191 °C
CCOC(=O)COc1ccc(C(=O)CN2Cc3cc(C(=N)N)ccc3C2=O)cc1SCC (as salt: salt) (hydrate or solvate) [Example 33, (4-{2-[5-Carbamimidoyl-1-oxo-1,3-dihydro-isoindol-2-yl]-acetyl}-2-ethylsulfanyl-phenoxy)-acetic acid ethyl ester]	185 to 186 °C
Cc1c(OCC(=O)OCc2ccccc2)ccc(C(=O)CN2Cc3cc(C(=N)NO)ccc3C2=O)c1O (hydrate or solvate) [Example 56, (3-Hydroxy-4-{2-[5-(N-hydroxycarbamimidoyl)-1-oxo-1,3-dihydro-isoindol-2-yl]-acetyl}-2-methyl-phenoxy)-acetic acid benzyl ester]	200 °C
CCOC(=O)COc1cc(O)c(C(=O)CN2Cc3cc(C(=N)NO)ccc3C2=O)cc1OCC(=O)OCC (hydrate or solvate) [Example 65, (2-Ethoxycarbonylmethoxy-5-hydroxy-4-{2-[5-(N-hydroxycarbamimidoyl)-1-oxo-1,3-dihydro-isoindol-2-yl]-acetyl}-phenoxy)-acetic acid ethyl ester]	186 to 188 °C
CCOC(=O)COc1ccc(C(=O)CN2Cc3cc(C(=N)NC(=O)OCC(C)C)ccc3C2=O)cc1Cl [Example 31, (2-Chloro-4-{2-[5-(imino-isobutoxycarbonylamino-methyl)-1-oxo-1,3-dihydro-isoindol-2-yl]-acetyl}-phenoxy)-acetic acid ethyl ester]	178 to 179 °C
CC(C)COC(=O)NC(=N)c1ccc2c(c1)CN(CC(=O)c1ccc(OCC(=O)OC(C)C)cc1)C2=O (hydrate or solvate) [Example 7, (4-{2-[5-(Imino-isobutoxycarbonylamino-methyl)-1-oxo-1,3-dihydro-isoindol-2-yl]-acetyl}-phenoxy)-acetic acid isopropyl ester]	155 to 157 °C
COC(=O)COc1ccc(C(=O)CN2Cc3cc(C(=N)NO)ccc3C2=O)cc1 (hydrate or solvate) [Example 2, (4-{2-[5-(N-Hydroxycarbamimidoyl)-1-oxo-1,3-dihydro-isoindol-2-yl]-acetyl}-phenoxy)-acetic acid methyl ester]	175 to 176 °C
CCCOc1cc(OCC(=O)OCC)ccc1C(=O)CN1Cc2cc(C(=N)NO)ccc2C1=O (hydrate or solvate) [Example 46, (4-{2-[5-(N-Hydroxycarbamimidoyl)-1-oxo-1,3-dihydro-isoindol-2-yl]-acetyl}-3-propoxy-phenoxy)-acetic acid ethyl ester]	175 to 177 °C
C=CCOc1cc(OCC(=O)OCC)ccc1C(=O)CN1Cc2cc(C(=N)NO)ccc2C1=O (hydrate or solvate) [Example 83, (3-Allyloxy-4-{2-[5-(N-hydroxycarbamimidoyl)-1-oxo-1,3-dihydro-isoindol-2-yl]-acetyl}-phenoxy)-acetic acid ethyl ester]	182 to 183 °C
CCN(CC)C(=O)COc1ccc(C(=O)CN2Cc3cc(C(=N)N)ccc3C2=O)cc1 (as salt: salt) [Example 25, 2-(4-{2-[5-Carbamimidoyl-1-oxo-1,3-dihydro-isoindol-2-yl]-acetyl}-phenoxy)-N,N-diethyl-acetamide]	194 to 195 °C
CCCc1c(OCC(=O)OCc2ccccc2)ccc(C(=O)CN2Cc3cc(C(=N)NO)ccc3C2=O)c1O [Example 59, (3-Hydroxy-4-{2-[5-(N-hydroxycarbamimidoyl)-1-oxo-1,3-dihydro-isoindol-2-yl]-acetyl}-2-propyl-phenoxy)-acetic acid benzyl ester]	199 to 200 °C
CC(C)COC(=O)COc1ccc(C(=O)CN2Cc3cc(C(=N)NO)ccc3C2=O)cc1 [Example 15, (4-{2-[5-(N-Hydroxycarbamimidoyl)-1-oxo-1,3-dihydro-isoindol-2-yl]-acetyl}-phenoxy)-acetic acid isobutyl ester]	153 to 154 °C
CCOC(=O)COc1ccc(C(=O)CN2Cc3cc(C(=N)NO)ccc3C2=O)c(O)c1OCC(=O)OCC [Example 64, (2-Ethoxycarbonylmethoxy-3-hydroxy-4-{2-[5-(N-hydroxycarbamimidoyl)-1-oxo-1,3-dihydro-isoindol-2-yl]-acetyl}-phenoxy)-acetic acid ethyl ester]	153 to 155 °C
CC(C)OC(=O)COc1ccc(C(=O)CN2Cc3cc(C(=N)NO)ccc3C2=O)cc1 (hydrate or solvate) [Example 9, (4-{2-[5-(N-Hydroxycarbamimidoyl)-1-oxo-1,3-dihydro-isoindol-2-yl]-acetyl}-phenoxy)-acetic acid isopropyl ester]	164 to 166 °C
CCCc1c(OCC(=O)O)ccc(C(=O)CN2Cc3cc(C(=N)N)ccc3C2=O)c1O (as salt: trifluoroacetic acid salt) [Example 60, (4-{2-[5-Carbamimidoyl-1-oxo-1,3-dihydro-isoindol-2-yl]-acetyl}-3-hydroxy-2-propyl-phenoxy)-acetic acid]	222 to 223 °C
CCCc1c(OCC(=O)OCC)ccc(C(=O)CN2Cc3cc(C(=N)NO)ccc3C2=O)c1O [Example 58, (3-Hydroxy-4-{2-[5-(N-hydroxycarbamimidoyl)-1-oxo-1,3-dihydro-isoindol-2-yl]-acetyl}-2-propyl-phenoxy)-acetic acid ethyl ester]	211 to 212 °C
CC(C)OC(=O)COc1ccc(C(=O)CN2Cc3cc(C(=N)N)ccc3C2=O)cc1 (hydrate or solvate) [Example 5, (4-{2-[5-Carbamimidoyl-1-oxo-1,3-dihydro-isoindol-2-yl]-acetyl}-phenoxy)-acetic acid isopropyl ester]	162 °C
CCOC(=O)COc1c(SCC)cc(C(=O)CN2Cc3cc(C(=N)NO)ccc3C2=O)cc1SCC [Example 37, (2,6-Bis-ethylsulfanyl-4-{2-[5-(N-hydroxycarbamimidoyl)-1-oxo-1,3-dihydro-isoindol-2-yl]-acetyl}-phenoxy)-acetic acid ethyl ester]	183 to 184 °C
CCOC(=O)COc1ccc(C(=O)CN2Cc3cc(NC(C)=N)ccc3C2=O)c(O)c1 (as salt: iodide) (hydrate or solvate) [Example 74, (4-{2-[5-Acetimidoylamino-1-oxo-1,3-dihydro-isoindol-2-yl]-acetyl}-3-hydroxy-phenoxy)-acetic acid ethyl ester]	196 to 197 °C
CC(C)OC(=O)COc1ccc(C(=O)CN2Cc3cc(C(=N)NC(=O)OCc4ccccc4)ccc3C2=O)cc1 (hydrate or solvate) [Example 8, (4-{2-[5-(Benzyloxycarbonylamino-imino-methyl)-1-oxo-1,3-dihydro-isoindol-2-yl]-acetyl}-phenoxy)-acetic acid isopropyl ester]	156 to 158 °C
